# Columns and labels:
# [1] = system: Pseudomonas ayucida No PTA-806; assay: Nitrogen Bioavailability Assay, substrate range and specificity tests; format: cell-based; settings: for growth on test compound as nitrogen source: substrate range and specificity tests
# Excerpt: The ability of bacteria to utilize organic nitrogen compounds for growth can be measured by the Nitrogen Bioavailability Assay (NBA). This assay is based on the fact that all life requires some nitrogen for growth and, therefore, a situation can be created whereby quantifying bacterial growth provides a measure of the utilization of any organic or inorganic compound as a source of nitrogen.
# Thus, the Nitrogen Availability Assay utilizes defined mineral salts medium in growth tests in which organonitrogen model compounds such as quinoline, pyridine, carbazole, and porphyrin serve as sources of carbon and/or nitrogen. Growth tests are performed using six conditions:
# 1. Test compound as sole source of carbon and nitrogen;
# 2. […]
# 3. Test compound as sole source of nitrogen (alternative carbon source, glucose/glycerol/succinate, is available);
# 4. Test compound present as well as alternative sources of carbon and nitrogen;
# 5. Only alternative nitrogen (ammonia) and carbon (glucose/glycerol/succinate) sources are available. The test compound is not present.
# 6. No nitrogen compounds of any kind are present, but alternative carbon (glucose/glycerol/succinate) sources are available.
# These six growth conditions constitute a bioassay for the ability of a culture to metabolize organonitrogen compounds. […]
# The NBA test may be performed with any organonitrogen test compound which is ordinarily used at a concentration of from 3 mM to 20 mM.
# In order to determine the range of organonitrogen compounds that could serve as sole sources of nitrogen for growth for the various pure cultures of the invention various organonitrogen compounds and control compounds are tested according to the Nitrogen Bioavailability Assay procedure. All compounds are highly pure, analytical grade compounds.
# The various cultures are inoculated into test tubes or shake flasks containing media components appropriate for the six test conditions.
# The cultures are then incubated aerobically for 2 to 4 days, at room temperature or at 30° C.
# The growth of the cultures is monitored by measuring the turbidity/optical density of the cultures in the various test conditions, or by determining colony forming units.
# Test condition no 6 (nitrogen-free sample) is a negative control.
# Test conditions no 4 and 5 are positive controls since the samples are amended with both a carbon and nitrogen source and therefore should produce healthy microbial growth unless the test compound is toxic to the culture being tested. In this event only condition no 5 should result in healthy growth.
# Substrate range and specificity tests were also carried out for the microorganism of the invention.
# Aneurinibacillus sp. = assay: Nitrogen Availability Assay, growth and substrate range tests of thermophilic culture; settings: for minimum nitrogen concentration needed for growth: sole nitrogen source; for growth on test compound (substrate range): 3 mM test compound, 2 to 3 weeks incubation
# Protocol: The growth curve for this microorganism on pyridine as sole nitrogen source at 55° C. was determined by adding pyridine at the concentration of 3 mM to the Modified A medium in a 300 ml shake flask with a side arm klett tube to take klett/turbidity readings. Inoculums from log phase cultures were used in studying the growth kinetics of the culture. […] All experiments were in triplicate.
# The concentration of nitrogen required by Aneurinibacillus sp. for growth was investigated using ammonium chloride and pyridine as sole nitrogen sources in modified medium A, at pH 7 and 55° C.
# Substrate range and specificity tests were carried out for this culture. Experiments were performed during 2 to 3 weeks of incubations in sterile tubes with 3 mM concentration of the test compounds and an incubation volume of 5 ml.
# Pseudomonas stutzeri = assay: Utilization of carbazole as nitrogen or carbon source; format: cell-based
# Protocol: This culture is prepared by the methods described hereinbefore. […] Experimental results lead to the conclusion that C—N bonds in carbazole are selectively cleaved by the Pseudomonas stutzer culture isolated here although the specific metabolites produced have not yet been determined.
# Yokenella sp. = assay: as above; format: cell-based
# Protocol: The Yokenella sp. culture is prepared according to the principles described hereinbefore. […] Experimental results lead to the conclusion that C—N bonds in carbazole are selectively cleaved by the Yokenella sp. culture isolated here although the specific metabolites produced have not yet been determined.
# [2] = system: Derivatives of Pseudomonas ayucida No PTA-806; assay: Utilization of organonitrogen compounds by derivative culture; format: cell-based
# Excerpt: Similarly, derivatives of Pseudomonas ayucida No PTA-806 that are resistant to antiobiotics, either by the isolation of chromosomal mutations or by the introduction of suitable plasmids, retain the ability to selectively cleave C—N bonds in quinoline and other organonitrogen compounds.
# [3] = system: Pseudomonas nitroreducens
# [4] = system: Pseudomonas ayucida No PTA-806; assay: Petroleum (shale oil) biodenitrogenation test; format: cell-based; settings: overnight (16 hour) incubation
# Protocol: One liter of culture OD600=1.67 is produced, which is harvested and the cell pellet is resuspended in 100 mls of ModA medium. The culture is divided into two 50 ml portions and 3 ml of shale oil (1.7 weight % nitrogen) is added to each. Then, the cultures are incubated under agitation at room temperature overnight (16 hours), the oil is separated and analyzed. The amount of quinoline present in oil samples is determined by GC, the area under the peak being corresponding to a retention time for quinoline.
# Then duplicate washed concentrated cell suspensions were incubated with shale oil samples for 16 hours at 30° C. The control sample consisted of shale oil added to sterile ModA medium which was incubated for 16 hours at 30° C. After incubation the petroleum samples were recovered and analyzed.
# [5] = modified medium A, pH 7, 55° C.
# [6] = pyridine 3 mM as sole nitrogen source, 55° C., Modified A medium
smiles,measurement,setting,value
CCCCN1CCCC1 [1-butylpyrrolidine],growth in the presence of test compound when quinoline simultaneously present as alternate nitrogen source,[1],grew in the presence of all of the test compounds except
"Oc1cc(O)c2ccccc2n1 [2,4-quinolinediol]",growth on test compound as nitrogen source,[1],grow
"C=C1N(C)c2ccccc2C1(C)C [2-methylene-1,3,3-trimethyl indoline]",growth in the presence of test compound when quinoline simultaneously present as alternate nitrogen source,[1],grew in the presence of all of the test compounds except
"O=C1CCc2ccccc2N1 [3,4-dihydro-(1H)-quinolinone]",growth on test compound as nitrogen source,[1],grow
O=c1ccc2cccc(O)c2o1 [8-hydroxycoumarin],utilization as carbon source for growth,[1],lack of utilization
Oc1cccc2cccnc12 [8-hydroxyquinoline],growth on test compound as nitrogen source,[1],grow
Cl.N [ammonium chloride],minimum nitrogen concentration needed for growth,Aneurinibacillus sp.; [5],0.5 mM
c1ccc2c(c1)[nH]c1ccccc12 [carbazole],utilization as sole nitrogen source,Pseudomonas stutzeri,able to utilize
same,utilization as source of carbon,Pseudomonas stutzeri,dose not utilize
same,utilization as sole nitrogen source,Yokenella sp.,able to utilize
same,utilization as source of carbon,Yokenella sp.,dose not utilize
Nc1nc2nc[nH]c2c(=O)[nH]1 [guanine],growth on test compound (substrate range),Aneurinibacillus sp.,showed growth
same,growth on test compound as nitrogen source,[1],grow
c1ccc2cnccc2c1 [isoquinoline],utilization / metabolism by derivative culture,[2],increased substrate range for the metabolism
NCCCC[C@H](N)C(=O)O [lysine],growth on test compound (substrate range),Aneurinibacillus sp.,showed growth
same,growth on test compound as nitrogen source,[1],grow
O=C(O)c1cccnc1 [nicotinic acid],growth on test compound (substrate range),Aneurinibacillus sp.,showed growth
same,growth on test compound as nitrogen source,[1],grow
c1ccncc1 [pyridine],utilization as carbon source,Aneurinibacillus sp.,no utilization
same,growth on test compound (substrate range),Aneurinibacillus sp.,showed growth
same,utilization as sole nitrogen source,Aneurinibacillus sp.; 55° C.,able to utilize
same,concentration inhibitory to the culture,Aneurinibacillus sp.; [5],higher than 10 mM
same,exponential growth rate,Aneurinibacillus sp.; [6],0.13 h
same,generation time,Aneurinibacillus sp.; [6],7.55 h
same,minimum nitrogen concentration needed for growth,Aneurinibacillus sp.; [5],0.5 mM
c1ccc2ncncc2c1 [quinazoline],utilization / metabolism by derivative culture,[2],increased substrate range for the metabolism
c1ccc2ncccc2c1 [quinoline],growth with compound as sole source of nitrogen,[3],growth with quinoline as sole source of nitrogen is indicated
same,reduction of total nitrogen content of the medium,[3]; quinoline 3.4 mM as sole source of nitrogen,up to 85%
same,utilization as carbon source for growth,[1],lack of utilization
same,cell doubling time,"[1]; defined salts medium, 30° C., quinoline as sole nitrogen source",4.25 h
same,growth on test compound as nitrogen source,[1],grow
same,quinoline removed from shale oil,[4],about 68%
c1ccc2nccnc2c1 [quinoxaline],growth on test compound as nitrogen source,[1],grow
same,utilization / metabolism by derivative culture,[2],improved ability to utilize
N[C@@H](Cc1c[nH]c2ccccc12)C(=O)O [tryptophan],growth on test compound (substrate range),Aneurinibacillus sp.,showed growth
same,growth on test compound as nitrogen source,[1],grow
NC(N)=O [urea],growth on test compound (substrate range),Aneurinibacillus sp.,showed growth
same,growth on test compound as nitrogen source,[1],grow

# From patent US6541240B1, “Bacterial cleavage of only organic C-N bonds of carbonaceous materials to reduce nitrogen content” (Petroleo Brasileiro S.A.-Petrobras, priority 1999, dated 2003)
